Laboratory results taken from US20250296967A1 (Ferring B.V., priority 2006, published 2025).

Columns and labels:
[1] = test system: B2A2-K-NS; assay: Binding of B2A2-K-NS to ceramic granules (BCA / micro BCA, subtraction method); assay type: physicochemical; details: high B2A2-K-NS coating concentrations, as described in Example 2
Description: Methods. 1.5 cc of granules were added to 1.8 mL of 0.9% saline or of peptide solution in 0.9% saline having a concentration of 35.9, 119.8, 359.3 μg/ml. The granule-peptide solutions were swirled vigorously for 15 seconds every 5 minutes for 20 minutes. After swirling, the supernatant was removed, filtered through 0.22 μm filter (low protein binding durapore (PVDF)) and assayed via Bicinchoninic Acid (BCA) or micro BCA assay (Pierce, Rockport, IL) for peptide content. The amount of peptide bound to the particles was obtained by subtraction method (the total peptide minus peptide present in the supernatant is equal to the amount of peptide bound on particulate materials.). The study was performed on two separate days and the results averaged below: […]

[2] = test system: B2A2-K-NS; assay: Binding of B2A2-K-NS to commercially available bone replacement grafts (ELISA, difference method); assay type: physicochemical; details: BRGs in 0.9% saline
Description: The next step was to determine whether the peptide was able to bind these BRGs. B2A2-K-NS (approximately 20 μg/ml) was incubated in one ml of 0.9% saline solution with 0.17 gram BRGs for 15 minutes. An ELISA assay was performed both on peptide solution without BRGs and the supernatant from the peptide+BRG. The difference between the peptide only reading and the supernatant from the peptide+BRG provided the amount of peptide bound.
The binding definitions are defined as follows: None is no detectable binding. High is binding>20 μg peptide/cc graft material. Intermediate is less than 20 μg peptide/cc graft material, but above non-detectable binding.

[3] = test system: mouse pluripotent cell lines C2C12; assay: Alkaline phosphatase assay of B2A2-K-NS released from 20:80 granules, with or without BMP-2; assay type: cell-based; details: peptide released from 20:80 granules, 1.25- to 10 μg/ml, BMP-2 100 ng/ml, C2C12 cells, 1 day
Description: Methods: (A) Peptide was collected over a six hour period after release from 20:80 (as described in Example 3). The supernatants from all time points were mixed, frozen, and lyophilized for 48 hours. The peptide pellet was reconstituted in 1.5 ml saline and a BCA assay performed to determine peptide concentration.
(B) Alkaline phosphatase assays were performed using mouse pluripotent cell lines C2C12. Cells were plated in 96-well (1×10^4/well) plates in DMEM/F-12 Ham's containing 15% FBS, 1% L-gln, 1% NaPyr, and 1% gentamycin and allowed 24 hours to attach at 37 C, 5% CO2, 90% humidity. […] After 1 day, ALP activity was determined.

[4] = test system: B2A2-K-NS; assay: Release of B2A2-K-NS from peptide bound BRGs (ELISA); assay type: physicochemical; details: 0.9% saline
Description: The third step was to measure the amount of peptide released using the same ELISA assay. Briefly, the peptide bound BRGs were placed in 1 ml of 0.9% saline and the amount of peptide released was measured over a 72 hours period.

[5] = Release of B2A2-K-NS from ceramic granules (BCA, cumulative release, FIG. 1); assay type: physicochemical; details: first 4 hour period, 0.9% saline
Description: Methods: After binding the peptide to the granules as described in Example 2, each of the vials containing particulate materials was replenished with 1.8 mL of 0.9% saline and placed on the rocking platform. After specified time interval, the supernatant was removed, filtered, and collected over a period of 43 hrs. Based on the amount of the peptide present in the supernatant, the amount of peptide bound to or released from the particles as was calculated. The study was performed on two separate days with the averages plotted showing cumulative peptide released vs. time (see graph in FIG. 1) (Note: the HA plus silicon was only performed at high dose). A BCA assay was utilized to determine peptide concentrations. The 60:40 granule was pH 8.8.
Referring now to FIG. 1, the release characteristics of specified materials tested. There was a burst of peptide released over a 4 hour period (supernatant was assessed hourly for the first four hours). At high loading doses (431 μg peptide/cc granule), the burst phase accounted for 12-22% of the total amount of peptide loaded. For intermediate loading doses (144 μg peptide/cc granule), the burst phase accounted for 25-35% of the total amount loaded. For low doses (43 μg peptide/cc granule), the burst phase accounted for 48-59% of the total amount loaded. Following the burst period, there was a slower, sustained release period.
The diamond on the graph represents 60% HAP and 40% TCP (high dose). The square represents 60% HAP and 40% TCP (medium dose). The triangle represents 20% HAP and 80% TCP (high dose). The X represents 20% HAP and 80% TCP (medium dose). The star represents 100% HAP plus Si (high dose). The filled-in circle represents 60% HAP and 40% TCP (low dose), and the plus sign represents 20% HAP and 80% TCP (low dose).

[6] = test system: ectopic bone; assay: Ectopic bone induction by B2A2-K-NS coated granules with exogenous recombinant BMP-2, subcutaneous implant in rats; assay type: in vivo
Description: Sterile ceramic granules (Berkeley Advanced Biomaterials, Inc.; 60:40 (HA:TCP)) where coated by immersing them for 30 minutes in a solution containing B2A2-K-NS (0-, 2.5-, 10-, 25 μg/ml). Thereafter, the solution was removed by aspiration and the granules allowed to air dry. The coated granules were then placed in sterile gelatin capsules. […] The capsules were placed subcutaneously in young adult rats on the flanks in pre-prepared pouches and the surgical site closed with surgical clips. After 30 days, the implants were surgically removed, weighed, and palpated to assess hardness. The explants were then fixed with multiple changes into 70% ethanol.

[7] = molecular target: T1, Type I, bovine-derived, dermal collagen sheets (Bos taurus, UniProt P02453+P02465); assay: Binding of B2A2-K-NS to collagen sheets; assay type: physicochemical; details: 1,072 μg B2A2-K-NS/ml collagen sheet in 0.9% saline
T1 construct: Type I, bovine-derived, dermal collagen sheets; from tissue; host or cells: bovine dermis
T1 sequence (P02453 162-1217 limits assumed): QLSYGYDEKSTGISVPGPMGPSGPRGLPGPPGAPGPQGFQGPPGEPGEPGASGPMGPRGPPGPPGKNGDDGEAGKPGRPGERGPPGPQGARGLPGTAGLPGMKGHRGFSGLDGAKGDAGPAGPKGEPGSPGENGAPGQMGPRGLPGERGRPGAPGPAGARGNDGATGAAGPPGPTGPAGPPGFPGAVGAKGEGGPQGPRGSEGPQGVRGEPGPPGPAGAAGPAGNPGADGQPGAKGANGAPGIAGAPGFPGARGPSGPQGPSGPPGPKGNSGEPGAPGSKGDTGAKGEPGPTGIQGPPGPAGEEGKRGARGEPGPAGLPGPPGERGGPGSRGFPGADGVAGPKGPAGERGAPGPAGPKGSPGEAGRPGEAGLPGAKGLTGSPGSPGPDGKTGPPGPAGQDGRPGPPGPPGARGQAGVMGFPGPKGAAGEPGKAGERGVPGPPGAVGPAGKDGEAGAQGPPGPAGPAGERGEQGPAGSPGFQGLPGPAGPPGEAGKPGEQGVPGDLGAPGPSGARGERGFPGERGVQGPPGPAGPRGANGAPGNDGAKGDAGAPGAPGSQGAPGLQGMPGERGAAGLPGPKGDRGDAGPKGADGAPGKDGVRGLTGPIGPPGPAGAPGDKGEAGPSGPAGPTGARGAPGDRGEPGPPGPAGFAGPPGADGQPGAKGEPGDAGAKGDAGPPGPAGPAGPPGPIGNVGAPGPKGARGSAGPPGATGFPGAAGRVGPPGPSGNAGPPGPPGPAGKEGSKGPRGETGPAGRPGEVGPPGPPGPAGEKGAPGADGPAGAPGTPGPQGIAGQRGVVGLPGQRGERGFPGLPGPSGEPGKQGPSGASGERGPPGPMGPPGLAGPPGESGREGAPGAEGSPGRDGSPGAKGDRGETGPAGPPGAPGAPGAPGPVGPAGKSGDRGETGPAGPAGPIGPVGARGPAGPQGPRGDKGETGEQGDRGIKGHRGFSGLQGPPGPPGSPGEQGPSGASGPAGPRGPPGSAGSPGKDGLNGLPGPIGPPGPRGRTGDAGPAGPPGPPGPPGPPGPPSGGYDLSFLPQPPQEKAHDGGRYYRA
T1 sequence (P02465 80-1117 limits assumed): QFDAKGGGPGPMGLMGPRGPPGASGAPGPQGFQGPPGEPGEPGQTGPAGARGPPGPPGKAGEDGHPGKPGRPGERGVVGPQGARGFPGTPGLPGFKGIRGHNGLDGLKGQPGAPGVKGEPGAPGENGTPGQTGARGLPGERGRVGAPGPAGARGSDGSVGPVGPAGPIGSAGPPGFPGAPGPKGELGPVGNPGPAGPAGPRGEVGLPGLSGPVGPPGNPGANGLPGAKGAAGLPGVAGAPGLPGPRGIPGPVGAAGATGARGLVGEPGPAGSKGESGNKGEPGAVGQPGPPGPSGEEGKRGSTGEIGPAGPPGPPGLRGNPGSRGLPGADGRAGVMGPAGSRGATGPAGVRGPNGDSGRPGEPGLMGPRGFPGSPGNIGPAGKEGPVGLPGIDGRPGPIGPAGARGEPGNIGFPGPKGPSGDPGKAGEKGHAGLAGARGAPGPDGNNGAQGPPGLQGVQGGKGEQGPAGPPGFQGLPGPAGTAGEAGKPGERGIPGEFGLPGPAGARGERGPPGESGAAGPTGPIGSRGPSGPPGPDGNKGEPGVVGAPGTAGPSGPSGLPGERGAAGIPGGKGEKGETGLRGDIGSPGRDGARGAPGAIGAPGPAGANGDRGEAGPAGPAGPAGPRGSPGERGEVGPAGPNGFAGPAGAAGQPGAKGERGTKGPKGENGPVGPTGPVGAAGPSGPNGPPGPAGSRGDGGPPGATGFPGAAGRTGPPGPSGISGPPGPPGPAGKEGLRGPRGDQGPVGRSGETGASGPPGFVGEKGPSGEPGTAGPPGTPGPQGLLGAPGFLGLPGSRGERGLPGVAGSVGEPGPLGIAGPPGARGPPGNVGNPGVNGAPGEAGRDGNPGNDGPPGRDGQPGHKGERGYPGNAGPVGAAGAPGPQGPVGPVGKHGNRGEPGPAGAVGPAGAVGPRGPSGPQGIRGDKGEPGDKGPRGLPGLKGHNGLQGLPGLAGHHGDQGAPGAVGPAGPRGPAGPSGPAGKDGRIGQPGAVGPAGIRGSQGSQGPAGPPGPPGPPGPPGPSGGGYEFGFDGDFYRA
Description: Type I, bovine-derived, dermal collagen sheets that were crosslinked with DHT and lyophilized were incubated with 1,072 μg B2A2-K-NS/ml collagen sheet in 0.9% saline solution. The binding efficiency was 61%, which was far lower than the binding efficiency on the Ca^2+ containing granules at high B2A2-K-NS coating concentrations (87-95% as described in Example 2). Lower binding efficiencies may be attributed to lower surface area as compared to that of the granules.

[8] = molecular target: T1, Type I, bovine-derived, dermal collagen sheets; assay: Release of B2A2-K-NS from collagen (BCA); assay type: physicochemical; details: 0.9% saline
Description: To initiate release, a vial containing collagen coated with B2A2-K-NS was replenished with 2 ml of 0.9% saline and placed on the rocking platform. After specified time interval, the supernatant was removed, filtered, and collected. A BCA assay was utilized to determine peptide concentrations. […] The BSA standard curve was generated by placing BSA in supernatant from the collagen sponge (without peptide).

[9] = Comparative release of synthetic growth factor analogues from a single scaffold (BCA, FIG. 5); assay type: physicochemical; details: 100 μg peptide/cc granule, 0.9% saline
Description: Methods for assaying peptide release from a single scaffold are as follows: 1 cc of granules were added to 1.2 mL of 0.9% saline or of peptide solution in 0.9% saline having a concentration of 100 μg B2A2-K-NS, LA2, or F2A4/cc granule. The granule-peptide solutions were swirled vigorously for 15 seconds every 5 minutes for 20 minutes. After swirling, the supernatant was removed and assayed via BCA or micro BCA assay for peptide content. The BCA value for each peptide was corrected relative to the BSA standard curve.
Referring now to FIG. 5, the shape of the release curve is similar for all three peptides (B2A2-K-NS (diamonds), LA2 (squares), and F2A4-K-NS (triangles)). However, the magnitude of the release is markedly different.

For “AISMLYLDENEKVVLKK(AISMLYLDENEKVVLK)HxHxHxRKRLDRIARNH2 [B2A2-K-NS]”, the “binding efficiency on the Ca2+ containing granules” value [1] was 87-95%, the “pH range of BRGs to which the peptide was found to bind” value [2] was 3.7-10.5 and the “effect on BMP-2 activity (ALP activity)” value [3] was “increased BMP-2 activity”. The “pH range of materials from which the peptide could release” value [4] was 6.3-10, the “burst phase release, share of the total amount of peptide loaded” value ([5]; high loading doses (431 μg peptide/cc granule)) was 12-22% and the “burst phase release, share of the total amount loaded” value ([5]; intermediate loading doses (144 μg peptide/cc granule)) was 25-35%. The “burst phase release, share of the total amount loaded” value ([5]; low doses (43 μg peptide/cc granule)) was 48-59%, the “implants judged palpably hardened” value ([6]; coated with 2.5 μg B2A2-K-NS, 1 μg recombinant BMP-2, rats, 30 days) was 3/4 and the “implants judged palpably hardened” value ([6]; coated with 10 μg B2A2-K-NS, 1 μg recombinant BMP-2, rats, 30 days) was 3/4. For the same substance, the “implants judged palpably hardened” value ([6]; coated with 25 ug B2A2-K-NS, 1 μg recombinant BMP-2, rats, 30 days) was 4/4, the “implants with histologically identifiable new bone” value ([6]; coated with 25 ug B2A2-K-NS, 1 μg recombinant BMP-2, rats, 30 days, hematoxylin and eosin) was 4/4 and the “explant weight versus controls (no BMP-2, no B2A2-K-NS)” value ([6]; rats, subcutaneous, 60:40 (HA:TCP) granules coated with 25 μg B2A2-K-NS, 1 μg recombinant BMP-2, 30 days) was “significantly higher weight”. For the same substance, the “explant weight versus those containing BMP-2 but no B2A2-K-NS” value ([6]; rats, subcutaneous, granules coated with 25 μg B2A2-K-NS, 1 μg recombinant BMP-2, 30 days) was “tended (p=0.11) to have a higher weight”, the binding efficiency [7] was 61% and the “cumulative amount of peptide released” value ([8]; after 1 hour) was 11%. The “cumulative amount of peptide released” value ([8]; after 2 hours) was 19%, the “cumulative amount of peptide released” value ([8]; after 3 hours) was 23% and the “cumulative amount of peptide released” value ([8]; after 4 hours) was 28%.

With “SIKVAVAAK(H-SIKVAVAA)xHxHxRKRKLERIAR-amide [LA2]” the “release of peptide from the scaffold (relative magnitude)” value [9] was “most rapidly released”.

With “YRSRKYSSWYVALKRK(H-YRSRKYSSWYVALKR)HxHxHxRKRLDRIAR-amide [F2A4]” the “release of peptide from the scaffold (relative magnitude)” value [9] was “does not release readily”.
